This note sets out measurements from US10722501B2 (BAYER AKTIENGESELLSCHAFT, priority 2016, dated 2020).

Molecules are shown by their SMILES.

For the test, the target named is T1, recombinant full-length human prolyl endopeptidase (PREP) (Homo sapiens, UniProt P48147).
T1 construct: To recombinant full-length human prolyl endopeptidase (PREP, R&D-Systems, 4308-SE); purchased R&D-Systems 4308-SE
T1 sequence (P48147 1-710): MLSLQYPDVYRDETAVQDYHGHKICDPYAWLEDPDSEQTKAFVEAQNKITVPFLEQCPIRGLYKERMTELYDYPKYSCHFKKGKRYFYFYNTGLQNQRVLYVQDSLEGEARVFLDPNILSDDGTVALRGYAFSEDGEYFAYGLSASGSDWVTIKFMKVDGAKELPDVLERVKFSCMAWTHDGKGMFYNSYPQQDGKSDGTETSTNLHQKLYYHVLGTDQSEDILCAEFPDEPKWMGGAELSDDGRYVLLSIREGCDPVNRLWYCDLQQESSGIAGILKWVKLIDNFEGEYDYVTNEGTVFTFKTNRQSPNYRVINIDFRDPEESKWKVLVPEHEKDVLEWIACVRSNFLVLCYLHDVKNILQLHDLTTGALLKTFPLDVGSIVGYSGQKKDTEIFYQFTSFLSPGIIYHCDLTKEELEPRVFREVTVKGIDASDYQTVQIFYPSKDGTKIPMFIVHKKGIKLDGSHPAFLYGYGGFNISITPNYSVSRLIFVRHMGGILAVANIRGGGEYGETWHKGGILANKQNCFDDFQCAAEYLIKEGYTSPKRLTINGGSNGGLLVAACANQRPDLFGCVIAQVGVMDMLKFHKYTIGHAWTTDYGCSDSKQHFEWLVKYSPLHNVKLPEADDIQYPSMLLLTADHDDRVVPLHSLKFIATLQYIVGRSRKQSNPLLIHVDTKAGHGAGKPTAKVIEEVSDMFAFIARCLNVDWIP
The test is described as follows: Biochemical human prolyl endopeptidase (PREP) assay with fluorescently labelled substrate. Particulars: substrate Z-Gly-Pro-AMC 50 μM, 32° C., 60 min; some as mean values from multiple independent determinations. The method, boiled down:
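0.4 nM (final, example) recombinant PREP in pH 7.5 Tris buffer with EDTA, GSH, BSA and Brij-35; compounds at 1 nM to 30 μM. Reaction started with 50 μM Z-Gly-Pro-AMC and followed by fluorescence (ex 360/em 465 nm) at 32° C for 60 min. IC50 interpolated from percent activity based on initial slopes.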
For the compound `O=C([C@@H]1CCCc2nn(Cc3cc4cccnc4nc3C(F)(F)F)c(=O)n21)N1CC[C@H](F)C1` [Example 419, (5S)-5-{[(3S)-3-Fluoropyrrolidin-1-yl]carbonyl}-2-{[2-(trifluoromethyl)-1,8-naphthyridin-3-yl]methyl}-5,6,7,8-tetrahydro[1,2,4]triazolo[4,3-a]pyridin-3(2H)-one], the IC50 – broadly, the concentration at which inhibition is half-maximal – was determined as 0.88 nM.
Under `O=C([C@@H]1CCCc2nn(Cc3cc4cccnc4nc3C(F)(F)F)c(=O)n21)N1CC(F)C1` [Example 420, (5S)-5-[(3-Fluoroazetidin-1-yl)carbonyl]-2-{[2-(trifluoromethyl)-1,8-naphthyridin-3-yl]methyl}-5,6,7,8-tetrahydro[1,2,4]triazolo[4,3-a]pyridin-3(2H)-one] stands 1.7 nM; under `O=C([C@@H]1CCCc2nn(Cc3ccc(Cl)nc3)c(=O)n21)N1CC(F)C1` [Example 421, (5S)-2-[(6-Chloropyridin-3-yl)methyl]-5-[(3-fluoroazetidin-1-yl)carbonyl]-5,6,7,8-tetrahydro[1,2,4]triazolo[4,3-a]pyridin-3(2H)-one], 0.91 nM; under `O=C([C@@H]1CCCc2nn(Cc3ccc(Cl)nc3)c(=O)n21)N1CC[C@H](F)C1` [Example 422, (5S)-2-[(6-Chloropyridin-3-yl)methyl]-5-{[(3S)-3-fluoropyrrolidin-1-yl]carbonyl}-5,6,7,8-tetrahydro[1,2,4]triazolo[4,3-a]pyridin-3(2H)-one], 0.63 nM.
Turning to `O=C([C@@H]1CCCc2nn(Cc3ccc(Cl)nc3)c(=O)n21)N1CCC(F)(F)C1` [Example 423, (5S)-2-[(6-Chloropyridin-3-yl)methyl]-5-[(3,3-difluoropyrrolidin-1-yl)carbonyl]-5,6,7,8-tetrahydro[1,2,4]triazolo[4,3-a]pyridin-3(2H)-one], the IC50 was 1.85 nM.
For the compound `O=C([C@@H]1CCCc2nn(Cc3ccc(Cl)nc3)c(=O)n21)N1C[C@@H](F)[C@@H](F)C1` [Example 424, (5S)-2-[(6-Chloropyridin-3-yl)methyl]-5-{[(3R,4S)-3,4-difluoropyrrolidin-1-yl]carbonyl}-5,6,7,8-tetrahydro[1,2,4]triazolo[4,3-a]pyridin-3(2H)-one], the IC50 was determined as 0.38 nM.
The same measure for `O=C([C@@H]1CCCc2nn(Cc3ccc(C(F)(F)F)nc3)c(=O)n21)N1CC[C@H](O)C1` [Example 425, (5S)-5-{[(3S)-3-Hydroxypyrrolidin-1-yl]carbonyl}-2-{[6-(trifluoromethyl)pyridin-3-yl]methyl}-5,6,7,8-tetrahydro[1,2,4]triazolo[4,3-a]pyridin-3(2H)-one]: 35 nM; for `O=C([C@@H]1CCCc2nn(Cc3ccc(C(F)(F)F)nc3)c(=O)n21)N1CCC(F)(F)C1` [Example 426, (5S)-5-[(3,3-Difluoropyrrolidin-1-yl)carbonyl]-2-{[6-(trifluoromethyl)pyridin-3-yl]methyl}-5,6,7,8-tetrahydro[1,2,4]triazolo[4,3-a]pyridin-3(2H)-one]: 6.93 nM.
Take `O=C([C@@H]1CCCc2nn(Cc3ccc(C(F)(F)F)nc3)c(=O)n21)N1CC[C@H](F)C1` [Example 427, (5S)-5-{[(3S)-3-Fluoropyrrolidin-1-yl]carbonyl}-2-{[6-(trifluoromethyl)pyridin-3-yl]methyl}-5,6,7,8-tetrahydro[1,2,4]triazolo[4,3-a]pyridin-3(2H)-one]: the IC50 was 1.1 nM.
On to `O=C([C@@H]1CCCc2nn(Cc3ccc(C(F)(F)F)nc3)c(=O)n21)N1CC(O)C1` [Example 428, (5S)-5-[(3-Hydroxyazetidin-1-yl)carbonyl]-2-{[6-(trifluoromethyl)pyridin-3-yl]methyl}-5,6,7,8-tetrahydro[1,2,4]triazolo[4,3-a]pyridin-3(2H)-one], for which the IC50 worked out at 53 nM.
Under `O=C([C@@H]1CCCc2nn(Cc3ccc(C(F)(F)F)nc3)c(=O)n21)N1CC(F)C1` [Example 429, (5S)-5-[(3-Fluoroazetidin-1-yl)carbonyl]-2-{[6-(trifluoromethyl)pyridin-3-yl]methyl}-5,6,7,8-tetrahydro[1,2,4]triazolo[4,3-a]pyridin-3(2H)-one] stands 3.7 nM; under `COc1ccc(Cn2nc3n(c2=O)[C@H](C(=O)N2CC[C@H](F)C2)CCC3)cn1` [Example 430, (5S)-5-{[(3S)-3-Fluoropyrrolidin-1-yl]carbonyl}-2-[(6-methoxypyridin-3-yl)methyl]-5,6,7,8-tetrahydro[1,2,4]triazolo[4,3-a]pyridin-3(2H)-one], 1.1 nM.
For `COc1ccc(Cn2nc3n(c2=O)[C@H](C(=O)N2C[C@@H](F)[C@@H](F)C2)CCC3)cn1` [Example 431, (5S)-5-{[(3R,4S)-3,4-Difluoropyrrolidin-1-yl]carbonyl}-2-[(6-methoxypyridin-3-yl)methyl]-5,6,7,8-tetrahydro[1,2,4]triazolo[4,3-a]pyridin-3(2H)-one], the IC50 is 0.995 nM.
As for `COc1ccc(Cn2nc3n(c2=O)[C@H](C(=O)N2CCC[C@H]2C#N)CCC3)cn1` [Example 432, (2S)-1-({(5S)-2-[(6-Methoxypyridin-3-yl)methyl]-3-oxo-2,3,5,6,7,8-hexahydro[1,2,4]triazolo[4,3-a]pyridin-5-yl}carbonyl)pyrrolidine-2-carbonitrile], the IC50 is 0.13 nM.
Regarding `COc1ccc(Cn2nc3n(c2=O)[C@H](C(=O)N2CC(F)C2)CCC3)cn1` [Example 433, (5S)-5-[(3-Fluoroazetidin-1-yl)carbonyl]-2-[(6-methoxypyridin-3-yl)methyl]-5,6,7,8-tetrahydro[1,2,4]triazolo[4,3-a]pyridin-3(2H)-one], the concentration for half-maximal inhibition (IC50) was 3.1 nM.
`COc1ccc(Cn2nc3n(c2=O)[C@H](C(=O)N2CCC(F)(F)C2)CCC3)cn1` [Example 434, (5S)-5-[(3,3-Difluoropyrrolidin-1-yl)carbonyl]-2-[(6-methoxypyridin-3-yl)methyl]-5,6,7,8-tetrahydro[1,2,4]triazolo[4,3-a]pyridin-3(2H)-one]: the half-inhibitory concentration (IC50) came to 2.4 nM.
`O=C([C@@H]1CCCc2nn(Cc3cncc(Cl)c3)c(=O)n21)N1CCC(F)(F)C1` [Example 435, (5S)-2-[(5-Chloropyridin-3-yl)methyl]-5-[(3,3-difluoropyrrolidin-1-yl)carbonyl]-5,6,7,8-tetrahydro[1,2,4]triazolo[4,3-a]pyridin-3(2H)-one]: the half-maximal inhibitory concentration (IC50) amounted to 2.65 nM.
As to `O=C([C@@H]1CCCc2nn(Cc3cncc(Cl)c3)c(=O)n21)N1CC(F)C1` [Example 436, (5S)-2-[(5-Chloropyridin-3-yl)methyl]-5-[(3-fluoroazetidin-1-yl)carbonyl]-5,6,7,8-tetrahydro[1,2,4]triazolo[4,3-a]pyridin-3(2H)-one], the 50% inhibitory concentration (IC50) worked out at 4.7 nM.
For `O=C([C@@H]1CCCc2nn(Cc3cncc(Cl)c3)c(=O)n21)N1CC(F)(F)C1` [Example 437, (5S)-2-[(5-Chloropyridin-3-yl)methyl]-5-[(3,3-difluoroazetidin-1-yl)carbonyl]-5,6,7,8-tetrahydro[1,2,4]triazolo[4,3-a]pyridin-3(2H)-one], the 50% inhibitory concentration (IC50) amounted to 7.1 nM.
With `O=C([C@@H]1CCCc2nn(Cc3cncc(Cl)c3)c(=O)n21)N1CC[C@H](F)C1` [Example 438, (5S)-2-[(5-Chloropyridin-3-yl)methyl]-5-{[(3S)-3-fluoropyrrolidin-1-yl]carbonyl}-5,6,7,8-tetrahydro[1,2,4]triazolo[4,3-a]pyridin-3(2H)-one], the IC50 was 1.68 nM.
Under `O=C([C@@H]1CCCc2nn(Cc3cncc(Cl)c3)c(=O)n21)N1C[C@@H](F)[C@@H](F)C1` [Example 439, (5S)-2-[(5-Chloropyridin-3-yl)methyl]-5-{[(3R,4S)-3,4-difluoropyrrolidin-1-yl]carbonyl}-5,6,7,8-tetrahydro[1,2,4]triazolo[4,3-a]pyridin-3(2H)-one] stands 2.2 nM; under `O=C([C@@H]1CCCc2nn(Cc3cnc(C(F)(F)F)c(Cl)c3)c(=O)n21)N1C[C@@H](F)[C@@H](F)C1` [Example 440, (5S)-2-{[5-Chloro-6-(trifluoromethyl)pyridin-3-yl]methyl}-5-{[(3R,4S)-3,4-difluoropyrrolidin-1-yl]carbonyl}-5,6,7,8-tetrahydro[1,2,4]triazolo[4,3-a]pyridin-3(2H)-one], 0.715 nM.
Regarding `O=C([C@@H]1CCCc2nn(Cc3cnc(C(F)(F)F)c(Cl)c3)c(=O)n21)N1CCC(F)(F)C1` [Example 441, (5S)-2-{[5-Chloro-6-(trifluoromethyl)pyridin-3-yl]methyl}-5-[(3,3-difluoropyrrolidin-1-yl)carbonyl]-5,6,7,8-tetrahydro[1,2,4]triazolo[4,3-a]pyridin-3(2H)-one], the IC50 is 2 nM.
